Data published in patent publication US20130310427A1, “INHIBITORS OF HCV NS5A PROTEIN” (PRESIDIO PHARMACEUTICALS, INC., priority 2010, published 2013).

The compounds below were run on bicistronic genotype 1b replicon in Huh 7 cells (1b_Huh-Luc/Neo-ET cell line) (assay: HCV replicon assay, luciferase enzyme activity readout). Settings: Hepatitis C virus, 1b_Huh-Luc/Neo-ET replicon cells, 72 h incubation, Bright-Glo luciferase readout, EC50 ranges, read-out: Inhibition of HCV genotype 1b.
Assay type: cell-based
Experimental: Biological activity of the compounds of the invention was determined using an HCV replicon assay. The 1b_Huh-Luc/Neo-ET cell line persistently expressing a bicistronic genotype 1b replicon in Huh 7 cells was obtained from ReBLikon GMBH. This cell line was used to test compound inhibition using luciferase enzyme activity readout as a measurement of compound inhibition of replicon levels.
On Day 1 (the day after plating), each compound is added in triplicate to the cells. Plates incubated for 72 h prior to running the luciferase assay. Enzyme activity was measured using a Bright-Glo Kit (cat. number E2620) manufactured by Promega Corporation. The following equation was used to generate a percent control value for each compound.
% Control=(Average Compound Value/Average Control)*100
The EC50 value was determined using GraphPad Prism and the following equation:
Y=Bottom+(Top−Bottom)/(1+10̂((Log IC50−X)*HillSlope))
EC50 values of compounds are repeated several times in the replicon assay.

SMILES	EC50 [nM]
COC(=O)N[C@H](C(=O)N1CC(C)=CC1c1ncc(-c2ccc(-c3ccc4cc(-c5cnc([C@@H]6CCCN6C(=O)[C@@H](NC(=O)OC)C(C)C)[nH]5)ccc4c3)cc2)[nH]1)C(C)C (stereo partly shown) [Compound 101]	< 1
COC(=O)N[C@H](C(=O)N1CC(C)=C[C@H]1c1ncc(-c2ccc(C#Cc3ccc4nc([C@@H]5CCCN5C(=O)[C@@H](NC(=O)OC)C(C)C)[nH]c4c3)cc2)[nH]1)C(C)C [Compound 102]	< 1
COC(=O)N[C@H](C(=O)N1CC(C)=C[C@H]1c1ncc(-c2ccc(C#Cc3ccc(-c4cnc([C@@H]5CCCN5C(=O)[C@@H](NC(=O)OC)C(C)C)[nH]4)cc3)cc2)[nH]1)C(C)C [Compound 103]	< 1
COC(=O)N[C@H](C(=O)N1CC(C)=C[C@H]1c1nc2ccc(C#Cc3ccc(-c4cnc([C@@H]5CCCN5C(=O)[C@@H](NC(=O)OC)C(C)C)[nH]4)cc3)cc2[nH]1)C(C)C [Compound 104]	< 1
COC(=O)N[C@H](C(=O)N1CC(C2CC2)=C[C@H]1c1ncc(-c2ccc(-c3ccc4cc(-c5cnc([C@@H]6CCCN6C(=O)[C@@H](NC(=O)OC)C(C)C)[nH]5)ccc4c3)cc2)[nH]1)C(C)C [Compound 105]	< 1
COC(=O)N[C@H](C(=O)N1CC(C2CC2)=C[C@H]1c1ncc(-c2ccc(C#Cc3ccc4nc([C@@H]5CCCN5C(=O)[C@@H](NC(=O)OC)C(C)C)[nH]c4c3)cc2)[nH]1)C(C)C [Compound 109]	< 1
COC(=O)N[C@H](C(=O)N1CC(C2CC2)=C[C@H]1c1ncc(-c2ccc(C#Cc3ccc(-c4cnc([C@@H]5CCCN5C(=O)[C@@H](NC(=O)OC)C(C)C)[nH]4)cc3)cc2)[nH]1)C(C)C [Compound 110]	< 1
COC(=O)N[C@H](C(=O)N1CC(C)=C[C@H]1c1ncc(-c2ccc(C#Cc3ccc(-c4cnc([C@@H]5C=C(C)CN5C(=O)[C@@H](NC(=O)OC)C(C)C)[nH]4)cc3)cc2)[nH]1)C(C)C [Compound 111]	< 1
COC(=O)N[C@H](C(=O)N1CC(C)=C[C@H]1c1ncc(-c2ccc3c(c2)Oc2ccc(-c4cnc([C@@H]5C=C(C)CN5C(=O)[C@@H](NC(=O)OC)C(C)C)[nH]4)cc2C3(C)C)[nH]1)C(C)C [Compound 112]	< 1
COC(=O)N[C@H](C(=O)N1CC(C)=C[C@H]1c1ncc(-c2ccc3c(=O)c4cc(-c5cnc([C@@H]6C=C(C)CN6C(=O)[C@@H](NC(=O)OC)C(C)C)[nH]5)ccc4oc3c2)[nH]1)C(C)C [Compound 113]	< 1
COC(=O)N[C@H](C(=O)N1CC(C2CC2)=C[C@H]1c1nc2ccc(-c3ccc4cc(-c5cnc([C@@H]6CCCN6C(=O)[C@@H](NC(=O)OC)C(C)C)[nH]5)ccc4c3)cc2[nH]1)C(C)C [Compound 114]	< 1
COC(=O)N[C@H](C(=O)N1CC(C2CC2)=C[C@H]1c1nc2ccc(C#Cc3ccc(-c4cnc([C@@H]5CCCN5C(=O)[C@@H](NC(=O)OC)C(C)C)[nH]4)cc3)cc2[nH]1)C(C)C [Compound 115]	< 1
COC(=O)N[C@H](C(=O)N1CC(C2CC2)=C[C@@H]1c1nc2ccc(C#Cc3ccc(-c4cnc([C@@H]5CCCN5C(=O)[C@@H](NC(=O)OC)C(C)C)[nH]4)cc3)cc2[nH]1)C(C)C [Compound 116]	1 to 9.9
COC(=O)N[C@H](C(=O)N1CC(C)=C[C@H]1c1ncc(-c2ccc(C#Cc3ccc4c(ccc5nc([C@@H]6CCCN6C(=O)[C@@H](NC(=O)OC)C(C)C)[nH]c54)c3)cc2)[nH]1)C(C)C [Compound 118]	< 1
COC(=O)N[C@H](C(=O)N1CC(C)=C[C@H]1c1ncc(-c2ccc3cc(-c4ccc5nc([C@@H]6CCCN6C(=O)[C@@H](NC(=O)OC)C(C)C)[nH]c5c4)ccc3c2)[nH]1)C(C)C [Compound 119]	< 1
COC(=O)N[C@H](C(=O)N1CC(C)=C[C@H]1c1ncc(-c2ccc3cc(-c4ccc(-c5cnc([C@@H]6CCCN6C(=O)[C@@H](NC(=O)OC)C(C)C)[nH]5)cc4)ccc3c2)[nH]1)C(C)C [Compound 120]	< 1
COC(=O)N[C@H](C(=O)N1CC(C)=C[C@H]1c1ncc(-c2ccc(-c3ccc4cc(-c5cnc([C@@H]6C=C(C)CN6C(=O)[C@@H](NC(=O)OC)C(C)C)[nH]5)ccc4c3)cc2)[nH]1)C(C)C [Compound 121]	< 1
COC(=O)N[C@H](C(=O)N1CC(C)=C[C@H]1c1ncc(-c2ccc3cc(-c4ccc5nc([C@@H]6C=C(C7CC7)CN6C(=O)[C@@H](NC(=O)OC)C(C)C)[nH]c5c4)ccc3c2)[nH]1)C(C)C [Compound 122]	< 1
COC(=O)N[C@H](C(=O)N1CC(C)=C[C@H]1c1ncc(-c2ccc3cc(C#Cc4cnc([C@@H]5CCCN5C(=O)[C@@H](NC(=O)OC)C(C)C)[nH]4)ccc3c2)[nH]1)C(C)C [Compound 123]	< 1
